Assay results from patent US20240316087A1, “Compositions And Methods For Inducing Apoptosis In Anaerobic Cells And Related Clinical Methods For Treating Cancer And Pathogenic Infections” (priority 2017, published 2024).
Where two headings read alike, the source gives them in different places.

What was measured:
NK cells = assay: NK cell cancer-killing activity assay with immune cells from cancer patients; format: cell-based, human
Experimental: Immune cells were obtained from blood samples of 73 cancer patients. The capability of these immune cells to kill tumor cells in vitro was determined using a conventional cellular NK activity assay (Neri et al, Clin. Diagn. Lab. Immunol. 2001 November; 8(6): 1131-1135).
Control samples for these assays employed immune cells from patients diagnosed as having no detectable cancer. One exemplary test run (FIG. 4) compared nine patient samples side by side (samples 4 and 5 are controls, from patients with no cancer).

[1] = tested on: alpha-N-acetylgalactosaminidase (nagalase); settings: human, in vivo
Stage IV cancer = tested on: Stage IV cancer
Experimental: A ten-year, multi-center cancer study was conducted wherein we recruited a total of 675 Stage IV cancer patients. These patients were treated and closely monitored through four participating medical and naturopathic clinics, with each clinic following standard therapeutic, monitoring and reporting protocols for each patient over a minimum study period of five years. The patients in these studies were all diagnosed by standard diagnostic methods (e.g., using tumor visualization, cytology, biopsy, blood assays for circulating tumor markers, etc.) at the start of the study as having Stage IV cancer, according to conventional diagnostic standards. Cancer types were grouped by primary cancer cytology/histochemistry, patient history and other standard criteria.
Of the 675 enrolled patients, 128 patients entered the study with diagnosed Stage IV breast cancer, 91 with Stage IV colon/rectal cancer, 34 with Stage IV head/neck cancer, 86 with Stage IV lung cancer, 32 with Stage IV non-Hodgkin's lymphoma (NHL), 28 with Stage IV melanoma, 36 with Stage IV ovarian cancer, 37 with Stage IV pancreatic cancer, 76 with Stage IV prostate cancer, 18 with Stage IV renal cancer, 23 with Stage IV sarcoma, and 34 with Stage IV uterine cancer.
Many of the enrolled subjects in this clinical study presented with Stage IV cancer that had persisted for many months, and in many cases years, following a prior Stage IV cancer diagnosis, and after having undergone one or more failed rounds of conventional oncotherapy (typically a combination of surgery, chemotherapy, radiation and/or hormonal therapy as indicated). These subjects are classified as “non-responsive” to conventional oncotherapy. A majority of the remaining study subjects enrolled in our study after an original Stage III or Stage IV cancer diagnosis, followed by conventional oncotherapy prior to the study, and presented at the time of study enrollment with disease progression to Stage IV cancer or with relapse of a prior, treated cancer. These subjects are classified as “treatment resistant” or “refractory” Stage IV cancer patients.
All patients remained throughout the study period in contact with medical providers who maintained regular monitoring of the subject's disease condition (with regular exams, including blood work testing for cancer markers, cytology, CT scans, PET scans, biopsy where indicated, and other diagnostic monitoring). Many of the study patients, while classified as having “treatment-resistant” Stage IV disease, nonetheless continued with some form of conventional oncotherapy (e.g., low dose chemotherapy) as recommended by their oncologist. […] About half of these subjects received conventional dose chemotherapy at some point, while the remainder received “low dose chemotherapy” (e.g., using a 10-15% dosing of a standard chemotherapeutic drug such as a taxane). […] Additionally, patients with breast cancer, ovarian cancer, uterine cancer and prostate cancer remained on any oncologist-prescribed hormonal therapy.
In certain cases, all 15 iv treatments were administered over a consecutive 15-day period, while in others the 15 iv treatments were scheduled over as much as a one-month period to accommodate patient scheduling factors.
All subjects were regularly examined for diagnostic cancer indicators, assessed according to standard methods.

[2] = Stage IV Non-Hodgins Lymphoma, number of patients out of 32 studied
[3] = Stage IV breast cancer, number of patients out of 128 studied
[4] = Stage IV colon/rectal cancer, number of patients out of 91 studied
[5] = Stage IV head/neck cancer, number of patients out of 34 studied
[6] = Stage IV lung cancer, number of patients out of 86 studied
[7] = Stage IV melanoma, number of patients out of 29 studied
[8] = Stage IV non-Hodgkin's lymphoma
[9] = Stage IV ovarian cancer, number of patients out of 36 studied
[10] = Stage IV pancreatic cancer, number of patients out of 37 studied
[11] = Stage IV prostate cancer, number of patients out of 76 studied
[12] = Stage IV renal cancer, number of patients out of 18 studied
[13] = Stage IV sarcoma, number of patients out of 23 studied
[14] = Stage IV uterine cancer, number of patients out of 34 studied

4-(beta-D-allopyranosyloxy)-benzaldehyde [Salicinium]
average increase in NK cell cancer-killing activity compared to basal (NK cells; cumulative samples (73 cancer patients), helicidum 0.5 mg/ml, 24 hours): 2.6 times | increase in NK cell cancer-killing activity above basal activity (NK cells; exemplary test run, FIG. 4, cancer patient samples, helicidum 0.5 mg/ml, 24 hours): from about 50% to 2- or 3-fold, up to about 4-fold or higher | increase in NK cell activity in control samples (NK cells; immune cells from patients with no detectable cancer, Salicinium present): little or no increase in NK cell activity | median nagalase level [1]: 0.78 Units | patients with pronounced reductions in nagalase levels [1]: 83% | study patients with nagalase levels below 0.95 Units (normal range) [1]: 86% | study patients with nagalase levels below 1.0 units [1]: 72% | therapeutic benefit (rates of stable disease, remission and survival) in smaller study groups (Stage IV cancer; 51 additional patients: ALL, AML, astrocytoma, bladder, CLL, esophageal, gall bladder, stomach, glioblastoma, Hodgkin's, liver, mesothelioma, myeloma, testicular, thyroid, five years): significant therapeutic benefits | Complete Remission, patient status through end of five year study period (Stage IV cancer; [2]): 6 | Not Surviving, patient status through end of five year study period (Stage IV cancer; [2]): 15 | Partial Remission, patient status through end of five year study period (Stage IV cancer; [2]): 5 | Stable Disease, patient status through end of five year study period (Stage IV cancer; [2]): 6 | five-year survival rate (Stage IV cancer; Stage IV breast cancer): 69% | patients with stable disease or in partial remission at end of five-year study (Stage IV cancer; Stage IV breast cancer): 53% | increase in five-year survival expectancy versus NIH median (Stage IV cancer; Stage IV breast cancer, from 16% (NIH median) to 69%): greater than four-fold increase | Complete Remission, patient status through end of five year study period (Stage IV cancer; [3]): 21 | Not Surviving, patient status through end of five year study period (Stage IV cancer; [3]): 39 | Partial Remission, patient status through end of five year study period (Stage IV cancer; [3]): 30 | Stable Disease, patient status through end of five year study period (Stage IV cancer; [3]): 38 | patients in complete remission at end of five-year study (Stage IV cancer; Stage IV breast cancer, of 128 enrolled): 16% | patients in total remission (Stage IV cancer; Stage IV colon/rectal cancer): 5% | patients surviving with stable disease or partial remission (Stage IV cancer; Stage IV colon/rectal cancer): 56% | total five-year survival percentage (Stage IV cancer; Stage IV colon/rectal cancer, 91 patients): 61% | survival versus NIH median survival (Stage IV cancer; Stage IV colon/rectal cancer, NIH median 8-15% (average 11.5%)): more than five-times greater | Complete Remission, patient status through end of five year study period (Stage IV cancer; [4]): 5 | Not Surviving, patient status through end of five year study period (Stage IV cancer; [4]): 35 | Partial Remission, patient status through end of five year study period (Stage IV cancer; [4]): 15 | Stable Disease, patient status through end of five year study period (Stage IV cancer; [4]): 36 | five-year survival (Stage IV cancer; Stage IV head/neck cancer): 53% | subjects in complete remission (Stage IV cancer; Stage IV head/neck cancer): 12% | subjects stable or in partial remission (Stage IV cancer; Stage IV head/neck cancer): 41% | Complete Remission, patient status through end of five year study period (Stage IV cancer; [5]): 4 | Not Surviving, patient status through end of five year study period (Stage IV cancer; [5]): 16 | Partial Remission, patient status through end of five year study period (Stage IV cancer; [5]): 0 | Stable Disease, patient status through end of five year study period (Stage IV cancer; [5]): 14 | five-year survival (Stage IV cancer; Stage IV lung cancer): 62% | patients stable or in partial remission (Stage IV cancer; Stage IV lung cancer): 56% | total remission rate (Stage IV cancer; Stage IV lung cancer): 6% | increase in survival expectancy compared to NIH published data (Stage IV cancer; Stage IV lung cancer, NIH median survival 50%): > 10% | Complete Remission, patient status through end of five year study period (Stage IV cancer; [6]): 5 | Not Surviving, patient status through end of five year study period (Stage IV cancer; [6]): 33 | Partial Remission, patient status through end of five year study period (Stage IV cancer; [6]): 10 | Stable Disease, patient status through end of five year study period (Stage IV cancer; [6]): 38 | five-year survival (Stage IV cancer; Stage IV melanoma): 52% | increase in patient survival over median survival (Stage IV cancer; Stage IV melanoma, NIH 15-20%, average 17.5%): about a three-fold increase | Complete Remission, patient status through end of five year study period (Stage IV cancer; [7]): 0 | Not Surviving, patient status through end of five year study period (Stage IV cancer; [7]): 14 | Partial Remission, patient status through end of five year study period (Stage IV cancer; [7]): 8 | Stable Disease, patient status through end of five year study period (Stage IV cancer; [7]): 7 | five-year survival (Stage IV cancer; [8]): 53% | subjects in total remission (Stage IV cancer; [8]): 19% | subjects stable or in partial remission (Stage IV cancer; [8]): 34% | overall five-year survival rate (Stage IV cancer; Stage IV ovarian cancer): 55% | subjects in complete remission at end of study (Stage IV cancer; Stage IV ovarian cancer): More than 10% | survival versus NIH median survival (Stage IV cancer; Stage IV ovarian cancer, NIH median 17%): more than three times | Complete Remission, patient status through end of five year study period (Stage IV cancer; [9]): 4 | Not Surviving, patient status through end of five year study period (Stage IV cancer; [9]): 16 | Partial Remission, patient status through end of five year study period (Stage IV cancer; [9]): 5 | Stable Disease, patient status through end of five year study period (Stage IV cancer; [9]): 11 | five-year survival rate (Stage IV cancer; Stage IV pancreatic cancer): 46% | survival versus median survival expectancy (Stage IV cancer; Stage IV pancreatic cancer, NIH median 4%): more than 11 times | Complete Remission, patient status through end of five year study period (Stage IV cancer; [10]): 0 | Not Surviving, patient status through end of five year study period (Stage IV cancer; [10]): 20 | Partial Remission, patient status through end of five year study period (Stage IV cancer; [10]): 0 | Stable Disease, patient status through end of five year study period (Stage IV cancer; [10]): 17 | five-year survival (Stage IV cancer; Stage IV prostate cancer): 78% | patients in total disease remission (Stage IV cancer; Stage IV prostate cancer): 20% | patients surviving in stable or partial remission status (Stage IV cancer; Stage IV prostate cancer): 58% | survival versus NIH published median survival (Stage IV cancer; Stage IV prostate cancer, NIH median 33%): more than double | Complete Remission, patient status through end of five year study period (Stage IV cancer; [11]): 15 | Not Surviving, patient status through end of five year study period (Stage IV cancer; [11]): 16 | Partial Remission, patient status through end of five year study period (Stage IV cancer; [11]): 23 | Stable Disease, patient status through end of five year study period (Stage IV cancer; [11]): 22 | five-year survival (Stage IV cancer; Stage IV renal cancer): 56% | subjects in total remission (Stage IV cancer; Stage IV renal cancer): 17% | subjects stable or in partial remission (Stage IV cancer; Stage IV renal cancer): 39% | Complete Remission, patient status through end of five year study period (Stage IV cancer; [12]): 3 | Not Surviving, patient status through end of five year study period (Stage IV cancer; [12]): 8 | Partial Remission, patient status through end of five year study period (Stage IV cancer; [12]): 0 | Stable Disease, patient status through end of five year study period (Stage IV cancer; [12]): 7 | five-year survival (Stage IV cancer; Stage IV sarcoma): 48% | subjects in total remission (Stage IV cancer; Stage IV sarcoma): 9% | subjects stable or in partial remission (Stage IV cancer; Stage IV sarcoma): 39% | Complete Remission, patient status through end of five year study period (Stage IV cancer; [13]): 2 | Not Surviving, patient status through end of five year study period (Stage IV cancer; [13]): 12 | Partial Remission, patient status through end of five year study period (Stage IV cancer; [13]): 2 | Stable Disease, patient status through end of five year study period (Stage IV cancer; [13]): 7 | five-year survival (Stage IV cancer; Stage IV uterine cancer): 47% | subjects in total remission (Stage IV cancer; Stage IV uterine cancer): 5% | subjects stable or in partial remission (Stage IV cancer; Stage IV uterine cancer): 41% | Complete Remission, patient status through end of five year study period (Stage IV cancer; [14]): 2 | Not Surviving, patient status through end of five year study period (Stage IV cancer; [14]): 18 | Partial Remission, patient status through end of five year study period (Stage IV cancer; [14]): 4 | Stable Disease, patient status through end of five year study period (Stage IV cancer; [14]): 10
